Results on three substances are retold here after patent publication US20130261066A1, “TREATMENT OF INFLAMMATORY BOWEL DISEASES USING A TRIPEPTIDE” (THE RESEARCH FOUNDATION OF STATE UNIVERSITY OF NEW YORK, priority 2010, published 2013).

The test system of this assay is NF-kB. The assay is described as follows: Inhibition of NF-kB by D-amino-acid and cyclized peptides. The source says: The following acetylated peptides, composed of D amino acids, were synthesized and tested for inhibition of NF-kB: 1) Ac-dGln-dALa-dTrp (SEQ ID NO:9); and 2) Ac-dPhe-dLeu-dLys-dGln-dALa-dTrp (SEQ ID NO:10). […] The following acetylated peptide, cyclized through its N- and C-terminals, was synthesized and tested for inhibition of NF-kB: Ac-Phe-Leu-Lys-Gln-Ala-Trp (SEQ ID NO:6).

Turning to “Ac-Phe-Leu-Lys-Gln-Ala-Trp (Ac-cyclo(FLKQAW))”, the “inhibition of NF-kB” value is “effective inhibition of NF-kB”. For Ac-dGln-dALa-dTrp, the “inhibition of NF-kB” value is “effective inhibition of NF-kB”.

Turning to Ac-dPhe-dLeu-dLys-dGln-dALa-dTrp, the “inhibition of NF-kB” value was “effective inhibition of NF-kB”.
